Data on 1 compound can be found in paper PMC9046208, “Foldamers reveal and validate therapeutic targets associated with toxic α-synuclein self-assembly” (Nature Communications, 2022).

Experiment [1] deals with HEK cells expressing αS-A53T-YFP. Kind of experiment: Inclusion count by confocal imaging, HEK cells αS-A53T-YFP. In kind it is cell-based. As to conditions: αS fibers 7 μM aggregated with equimolar SK-129, 24 h. The protocol:
The Lipofectamine solution (Lipofectamine+P3000 reagent, Thermo Fisher Scientific, Waltham, MA) was diluted to a ratio of 1:20 (v,v) in the OptiMEM (Fisher Scientific, Pittsburgh, PA) media. Simultaneously, the αS fiber solution (Stock solution conc. = 100 μM) was diluted in OptiMEM media to the desired conc. used for each assay. The αS fiber solution was sonicated for 10 min at r.t., followed by the addition of the Lipofectomine solution (in the OptiMEM media) at 1:1 ratio. Subsequently, this solution was incubated for another 10 min and then added to the HEK cells media with a dilution factor of 10 (10 μL of the combined αS fiber solution+Lipofectomine solution, in 90 μL HEK cells media). […]
We used confocal microscopy imaging to manually count the endogenous inclusions (of αS-A53T-YFP and αS-YFP). […] The counting of inclusions was carried out for six different experiments and for each experiment, 100 cells were counted from at least four different locations from the eight-well plate. The cells were counted manually by counting the number of Hoechst 33342 dye-stained nuclei in the cells. Also, the inclusions in the cells were counted manually at different locations in the eight-well plate.

A further experiment has as its system NL5901. The experiment can be described thus: Motility (activity counts, WMicroTracker ARENA) of C elegans NL5901. In kind it is in vivo. As to conditions: NL5901, 15 µM SK-129 at the larval stage. Here is the method:
The assay was carried out based on a previous protocol[57] with slight modifications. On day one, N2 and NL5901 strains were synchronized through the bleaching process involving egglay and the incubation of the eggs at an ambient temperature (~23 °C) on a solution of 3 mL NGM media in 60 mm culture plates (CytoOne, USA Scientific, Ocala, FL). The plates were seeded with 300 µL OP50 at an O.D. of 0.5 for 30 h. Simultaneously, a solution of 15 µM SK-129 (Stock solution concentration = 10 mM in DMSO) was made in M9 buffer and added to two sterilized 35 mm NGM solid media plates (Fisher Scientific, Pittsburgh, PA). The plates were already containing 2 mL of NGM solid media and 75 µM Fluorodeoxyuridine (FUDR) to prevent offspring in the worms. On day two, M9 buffer was used to transfer the worms from 60 mm NGM plates into 35 mm FUDR and SK-129 containing solid media plates (Fisher Scientific, Pittsburgh, PA) and incubated up to day three on these plates. On day four, liquid media was prepared according to the previous protocol[69] with some modifications. […] On day five, motility assay was conducted for worms under different conditions in duplicate using a WMicroTracker Arena plate reader (Phylumtech, Argentina) at ~23 °C for 1 h per day over a period of 12 days. […]

`COC(=O)c1cc(OCC(=O)O)c2cccc(NC(=O)c3cc(OC(C)C)c4cccc(NC(=O)c5cc(OCC(=O)O)c6cccc(NC(=O)c7cc(OC(C)C)c8cccc([N+](=O)[O-])c8n7)c6n5)c4n3)c2n1` [SK-129]: the “inclusions (αS-A53T-YFP or αS-YFP)” value in experiment [1] is recorded as “A very small number of inclusions”. In addition, the “overall activity (motility)” value in the experiment with NL5901 is recorded as “significant improvement in the overall activity”.
